Measurements as given in patent US8912207B2, “2-aldoximino-5-fluoropyrimidine derivatives” (Dow AgroSciences, LLP., priority 2009, dated 2014).
Like-named read-outs stand apart in the source and are kept apart here.

Tests used:
[1] = tested on: Mycosphaerella graminicola; anamorph: Septoria tritici; Bayer code SEPTTR; experiment: Fungicidal activity: leaf blotch of wheat, one-day protectant (1DP) and three-day curative (3DC) tests on wheat plants; format: in vivo, Septoria tritici on wheat plants (variety Yuma); settings: Zymoseptoria tritici, rating of % disease control vs untreated inoculated plants
Description: Evaluation of Fungicidal Activity: Leaf Blotch of Wheat (Mycosphaerella graminicola; anamorph: Septoria tritici; Bayer code […]) Wheat plants (variety Yuma) were grown from seed in a greenhouse in 50% mineral soil/50% soil-less Metro mix until the first leaf was fully emerged, with 7-10 seedlings per pot. These plants were inoculated with an aqueous spore suspension of Septoria tritici either prior to or after fungicide treatments. After inoculation the plants were kept in 100% relative humidity (one day in a dark dew chamber followed by two to three days in a lighted dew chamber) to permit spores to germinate and infect the leaf. The plants were then transferred to a greenhouse for disease to develop. The following table presents the activity of typical compounds of the present disclosure when evaluated in these experiments. The effectiveness of the test compounds in controlling disease was determined by assessing the severity of disease on treated plants, then converting the severity to percent control based on the level of disease on untreated, inoculated plants. In each case of Table III the rating scale is as follows: […]

[2] = 24 h, one-day protectant, read-out: SEPTTR 25 ppm 1DP
[3] = 24 h, one-day protectant, read-out: SEPTTR 100 ppm 1DP
[4] = 72 h, three-day curative, read-out: SEPTTR 25 ppm 3DC
[5] = 72 h, three-day curative, read-out: SEPTTR 100 ppm 3DC

| Structure (SMILES) | pest or weed control at 25 ppm [1, 2] | pest or weed control at 100 ppm [1, 3] | pest or weed control at 25 ppm [1, 4] | pest or weed control at 100 ppm [1, 5] | melting point |
| --- | --- | --- | --- | --- | --- |
| Cc1ccc(C=NOc2ncc(F)c(/N=C/N(C)C)n2)cc1 [Compound 15] | 76 to 100% | 76 to 100% | 76 to 100% | 76 to 100% | 247 to 253 °C (dec.) |
| CC(C)C=NOc1ncc(F)c(NCc2ccc(Cl)cc2)n1 [Compound 30] | 0 to 25% | 26 to 50% | 0 to 25% | 26 to 50% | 200 to 205 °C |
| Fc1cnc(ON=Cc2ccc(Cl)cc2)nc1NCc1ccccc1 [Compound 22] | 0 to 25% | 76 to 100% | 0 to 25% | 0 to 25% | 111 to 114 °C |
| CN(C)/C=N/c1nc(ON=Cc2ccccc2)ncc1F [Compound 1, N′-{5-fluoro-2-[1-phenylmethylideneamino-oxy]pyrimidin-4-yl}-N,N-dimethylformamidine] | 76 to 100% | 76 to 100% | 76 to 100% | 76 to 100% | 240 to 244 °C (dec.) |
| CC(C)C=NOc1ncc(F)c(N)n1 [Compound 7] | 76 to 100% | 76 to 100% | 76 to 100% | 76 to 100% | 105 to 107 °C |
| CC(C)C=NOc1ncc(F)c(N(C)C)n1 [Compound 55] | 0 to 25% | 0 to 25% | 0 to 25% | 0 to 25% | 90 to 92 °C |
| COc1ccc(CN(C)c2nc(ON=CC(C)C)ncc2F)cc1 [Compound 50] | 0 to 25% | 0 to 25% | 26 to 50% | 26 to 50% | 110 to 112 °C |
| CN(Cc1ccccc1)c1nc(ON=Cc2ccc(Cl)cc2)ncc1F [Compound 37] | 0 to 25% | 51 to 75% | 26 to 50% | 76 to 100% | 78 to 81 °C |
| CC=NOc1ncc(F)c(NCc2ccc(Cl)cc2)n1 [Compound 29] | 0 to 25% | 26 to 50% | 0 to 25% | 51 to 75% | 116 to 117 °C |
| Fc1cnc(ON=Cc2ccc(Cl)cc2)nc1NCc1ccc(Cl)cc1 [Compound 27] | 0 to 25% | 26 to 50% | 26 to 50% | 51 to 75% | 119 to 121 °C |
| CC=NOc1ncc(F)c(NCc2ccc(OC)cc2)n1 [Compound 34] | 0 to 25% | 26 to 50% | 26 to 50% | 76 to 100% | 79 to 82 °C |
| COc1ccc(C=NOc2ncc(F)c(N(C)C)n2)cc1 [Compound 53] | 0 to 25% | 0 to 25% | 0 to 25% | 0 to 25% | 106 to 107 °C |
| CN(C)/C=N/c1nc(ON=Cc2ccccc2Cl)ncc1F [Compound 3] | 76 to 100% | 76 to 100% | 76 to 100% | 76 to 100% | 186 to 210 °C (dec.) |
| Fc1ccccc1CNc1nc(ON=Cc2ccc(Cl)cc2)ncc1F [Compound 18] | 76 to 100% | 76 to 100% | 0 to 25% | 0 to 25% | 98 to 103 °C |
| CN(C)/C=N/c1nc(ON=Cc2ccc(Cl)cc2)ncc1F [Compound 2] | 76 to 100% | 76 to 100% | 76 to 100% | 76 to 100% | 230 to 242 °C (dec.) |
| CN(C)c1nc(ON=Cc2ccc(Cl)cc2)ncc1F [Compound 52] | 0 to 25% | 0 to 25% | 0 to 25% | 26 to 50% | 144 to 146 °C |
| CC=NOc1ncc(F)c(N(C)C)n1 [Compound 54] | 0 to 25% | 0 to 25% | 0 to 25% | 0 to 25% | 122 to 124 °C |
